Laboratory results published in ChEMBL document CHEMBL1135259, “Azapeptides as inhibitors of the hepatitis C virus NS3 serine protease” (Bioorg Med Chem Lett, 2002).

These molecules were tested against NS3 (Hepatitis C virus, UniProt A3EZJ3) (assay: Binding affinity against Hepatitis C virus NS3 protease).
Sequence of NS3 (A3EZJ3 whole entry): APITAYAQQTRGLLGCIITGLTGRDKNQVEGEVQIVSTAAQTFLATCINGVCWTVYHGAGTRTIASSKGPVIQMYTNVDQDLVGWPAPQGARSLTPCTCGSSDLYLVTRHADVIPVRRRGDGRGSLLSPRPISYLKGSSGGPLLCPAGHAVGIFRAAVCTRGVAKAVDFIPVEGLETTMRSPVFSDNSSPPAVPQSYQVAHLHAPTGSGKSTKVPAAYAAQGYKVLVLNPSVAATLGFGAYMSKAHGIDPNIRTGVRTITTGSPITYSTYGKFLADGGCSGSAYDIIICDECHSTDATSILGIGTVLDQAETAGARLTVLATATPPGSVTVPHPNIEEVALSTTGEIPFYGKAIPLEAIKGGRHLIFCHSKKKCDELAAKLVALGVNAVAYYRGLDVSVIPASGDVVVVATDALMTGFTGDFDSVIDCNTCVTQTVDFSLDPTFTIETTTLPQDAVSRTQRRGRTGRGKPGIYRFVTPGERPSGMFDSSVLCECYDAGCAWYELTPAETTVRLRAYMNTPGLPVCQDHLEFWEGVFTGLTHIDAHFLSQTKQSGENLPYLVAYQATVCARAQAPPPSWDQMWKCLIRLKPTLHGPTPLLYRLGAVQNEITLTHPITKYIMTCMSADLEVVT
Design: species or system Hepacivirus hominis
With `CCCN(NC(=O)[C@H]1CCCN1C(=O)[C@@H](NC(=O)[C@@H](NC(=O)[C@H](CC(=O)O)NC(=O)[C@H](CCC(=O)O)NC(=O)[C@@H](NC(=O)[C@H](CC(=O)O)NC(C)=O)[C@@H](C)O)C(C)C)C(C)C)C(=O)c1cc([N+](=O)[O-])cc([N+](=O)[O-])c1` the Ki was > 100 µM. Molecule `CCCN(NC(=O)[C@H]1CCCN1C(=O)[C@@H](NC(=O)[C@@H](NC(=O)[C@H](CC(=O)O)NC(=O)[C@H](CCC(=O)O)NC(=O)[C@@H](NC(=O)[C@H](CC(=O)O)NC(C)=O)[C@@H](C)O)C(C)C)C(C)C)C(=O)Sc1ccccc1` has a Ki of 160 µM. Molecule `CCCN(NC(=O)[C@H]1CCCN1C(=O)[C@@H](NC(=O)[C@@H](NC(=O)[C@H](CC(=O)O)NC(=O)[C@H](CCC(=O)O)NC(=O)[C@@H](NC(=O)[C@H](CC(=O)O)NC(C)=O)[C@@H](C)O)C(C)C)C(C)C)C(=O)OC(Cl)C(Cl)(Cl)Cl` (stereo not given in full) has a Ki of 0.2 µM. With `CCCN(NC(=O)[C@H]1CCCN1C(=O)[C@@H](NC(=O)[C@@H](NC(=O)[C@H](CC(=O)O)NC(=O)[C@H](CCC(=O)O)NC(=O)[C@@H](NC(=O)[C@H](CC(=O)O)NC(C)=O)[C@@H](C)O)C(C)C)C(C)C)C(=O)c1ccc(C#N)cc1` the Ki was > 100 µM. `CCCN(NC(=O)[C@H]1CCCN1C(=O)[C@@H](NC(=O)[C@@H](NC(=O)[C@H](CC(=O)O)NC(=O)[C@H](CCC(=O)O)NC(=O)[C@@H](NC(=O)[C@H](CC(=O)O)NC(C)=O)[C@@H](C)O)C(C)C)C(C)C)C(=O)N[C@@H](CO)C(=O)N[C@@H](CCSC)C(=O)N[C@@H](CO)C(=O)O` showed a Ki of 200 µM. Work on `CCCN(NC(=O)[C@H]1CCCN1C(=O)[C@@H](NC(=O)[C@@H](NC(=O)[C@H](CC(=O)O)NC(=O)[C@H](CCC(=O)O)NC(=O)[C@@H](NC(=O)[C@H](CC(=O)O)NC(C)=O)[C@@H](C)O)C(C)C)C(C)C)C(=O)Oc1ccccc1` yielded a Ki of 8 µM. For `CCCN(NC(=O)[C@H]1CCCN1C(=O)[C@@H](NC(=O)[C@@H](NC(=O)[C@H](CC(=O)O)NC(=O)[C@H](CCC(=O)O)NC(=O)[C@@H](NC(=O)[C@H](CC(=O)O)NC(C)=O)[C@@H](C)O)C(C)C)C(C)C)C(=O)c1c(F)c(F)c(F)c(F)c1F`, the Ki was > 100 µM. In the case of `CCCN(NC(=O)[C@H]1CCCN1C(=O)[C@@H](NC(=O)[C@@H](NC(=O)[C@H](CC(=O)O)NC(=O)[C@H](CCC(=O)O)NC(=O)[C@@H](NC(=O)[C@H](CC(=O)O)NC(C)=O)[C@@H](C)O)C(C)C)C(C)C)C(=O)OCc1ccc([N+](=O)[O-])cc1`, the Ki is reported as 45 µM. With `CCCN(NC(=O)[C@H]1CCCN1C(=O)[C@@H](NC(=O)[C@@H](NC(=O)[C@H](CC(=O)O)NC(=O)[C@H](CCC(=O)O)NC(=O)[C@@H](NC(=O)[C@H](CC(=O)O)NC(C)=O)[C@@H](C)O)C(C)C)C(C)C)C(=O)CC` the Ki was > 100 µM. With `CCCCC(=O)N(CCC)NC(=O)[C@H]1CCCN1C(=O)[C@@H](NC(=O)[C@@H](NC(=O)[C@H](CC(=O)O)NC(=O)[C@H](CCC(=O)O)NC(=O)[C@@H](NC(=O)[C@H](CC(=O)O)NC(C)=O)[C@@H](C)O)C(C)C)C(C)C` the Ki was > 100 µM. In the case of `CCCN(NC(=O)[C@H]1CCCN1C(=O)[C@@H](NC(=O)[C@@H](NC(=O)[C@H](CC(=O)O)NC(=O)[C@H](CCC(=O)O)NC(=O)[C@@H](NC(=O)[C@H](CC(=O)O)NC(C)=O)[C@@H](C)O)C(C)C)C(C)C)C(=O)C(=O)OCC`, the Ki is reported as > 100 µM. For `CCCN(NC(=O)[C@H]1CCCN1C(=O)[C@@H](NC(=O)[C@@H](NC(=O)[C@H](CC(=O)O)NC(=O)[C@H](CCC(=O)O)NC(=O)[C@@H](NC(=O)[C@H](CC(=O)O)NC(C)=O)[C@@H](C)O)C(C)C)C(C)C)C(=O)CCl`, the Ki was > 100 µM. `CCCN(NC(=O)[C@H]1CCCN1C(=O)[C@@H](NC(=O)[C@@H](NC(=O)[C@H](CC(=O)O)NC(=O)[C@H](CCC(=O)O)NC(=O)[C@@H](NC(=O)[C@H](CC(=O)O)NC(C)=O)[C@@H](C)O)C(C)C)C(C)C)C(=O)OCc1ccccc1` gave a Ki of 80 µM. `CCCN(NC(=O)[C@H]1CCCN1C(=O)[C@@H](NC(=O)[C@@H](NC(=O)[C@H](CC(=O)O)NC(=O)[C@H](CCC(=O)O)NC(=O)[C@@H](NC(=O)[C@H](CC(=O)O)NC(C)=O)[C@@H](C)O)C(C)C)C(C)C)C(=O)Sc1ccc(Cl)cc1` showed a Ki of 100 µM. `CCCN(NC(=O)[C@H]1CCCN1C(=O)[C@@H](NC(=O)[C@@H](NC(=O)[C@H](CC(=O)O)NC(=O)[C@H](CCC(=O)O)NC(=O)[C@@H](NC(=O)[C@H](CC(=O)O)NC(C)=O)[C@@H](C)O)C(C)C)C(C)C)C(=O)c1ccc([N+](=O)[O-])cc1` was tested, and the Ki was > 100 µM. In the case of `CSCC[C@H](NC(=O)[C@H](CO)NC(=O)NNC(=O)[C@H]1CCCN1C(=O)[C@@H](NC(=O)[C@@H](NC(=O)[C@H](CC(=O)O)NC(=O)[C@H](CCC(=O)O)NC(=O)[C@@H](NC(=O)[C@H](CC(=O)O)NC(C)=O)[C@@H](C)O)C(C)C)C(C)C)C(=O)N[C@@H](CO)C(=O)N[C@@H](Cc1ccc(O)cc1)C(=O)N[C@H](C(=O)N[C@@H](Cc1c[nH]c2ccccc12)C(=O)N[C@H](C(=O)NCC(=O)N[C@@H](CCCCN)C(=O)O)[C@@H](C)O)[C@@H](C)O`, the Ki is reported as > 200 µM. `CCCN(NC(=O)[C@H]1CCCN1C(=O)[C@@H](NC(=O)[C@@H](NC(=O)[C@H](CC(=O)O)NC(=O)[C@H](CCC(=O)O)NC(=O)[C@@H](NC(=O)[C@H](CC(=O)O)NC(C)=O)[C@@H](C)O)C(C)C)C(C)C)C(=O)c1ccc(-c2ccccc2)cc1` was tested, and the Ki was > 100 µM. For `CCCN(NC(=O)[C@H]1CCCN1C(=O)[C@@H](NC(=O)[C@@H](NC(=O)[C@H](CC(=O)O)NC(=O)[C@H](CCC(=O)O)NC(=O)[C@@H](NC(=O)[C@H](CC(=O)O)NC(C)=O)[C@@H](C)O)C(C)C)C(C)C)C(=O)Oc1ccccc1[N+](=O)[O-]`, the Ki was 9 µM. `CCCN(NC(=O)[C@H]1CCCN1C(=O)[C@@H](NC(=O)[C@@H](NC(=O)[C@H](CC(=O)O)NC(=O)[C@H](CCC(=O)O)NC(C)=O)C(C)C)C(C)C)C(=O)N[C@@H](CO)C(=O)N[C@@H](CCSC)C(=O)N[C@@H](CO)C(=O)N[C@@H](Cc1ccc(O)cc1)C(=O)N[C@H](C(=O)N[C@@H](Cc1c[nH]c2ccccc12)C(=O)N[C@H](C(=O)NCC(=O)N[C@@H](CCCCN)C(=O)O)[C@@H](C)O)[C@@H](C)O` showed a Ki of 20 µM. In the case of `CCCN(NC(=O)[C@H]1CCCN1C(=O)[C@@H](NC(=O)[C@@H](NC(=O)[C@H](CC(=O)O)NC(=O)[C@H](CCC(=O)O)NC(=O)[C@@H](NC(=O)[C@H](CC(=O)O)NC(C)=O)[C@@H](C)O)C(C)C)C(C)C)C(=O)c1ccc(C(F)(F)F)cc1`, the Ki is reported as > 100 µM. Work on `CCCN(NC(=O)[C@H]1CCCN1C(=O)[C@@H](NC(=O)[C@@H](NC(=O)[C@H](CC(=O)O)NC(=O)[C@H](CCC(=O)O)NC(=O)[C@@H](NC(=O)[C@H](CC(=O)O)NC(C)=O)[C@@H](C)O)C(C)C)C(C)C)C(=O)Oc1ccc(Cl)cc1` yielded a Ki of 16 µM. With `CCCN(NC(=O)[C@H]1CCCN1C(=O)[C@@H](NC(=O)[C@@H](NC(=O)[C@H](CC(=O)O)NC(=O)[C@H](CCC(=O)O)NC(=O)[C@@H](NC(=O)[C@H](CC(=O)O)NC(C)=O)[C@@H](C)O)C(C)C)C(C)C)C(=O)c1cc(C(F)(F)F)cc(C(F)(F)F)c1` the Ki was > 100 µM. `CCN(NC(=O)[C@H]1CCCN1C(=O)[C@@H](NC(=O)[C@@H](NC(=O)[C@H](CC(=O)O)NC(=O)[C@H](CCC(=O)O)NC(=O)[C@@H](NC(=O)[C@H](CC(=O)O)NC(C)=O)[C@@H](C)O)C(C)C)C(C)C)C(=O)OC(Cl)C(Cl)(Cl)Cl` (stereo not given in full) was tested, and the Ki was 0.9 µM. `CCCN(NC(=O)[C@H]1CCCN1C(=O)[C@@H](NC(=O)[C@@H](NC(=O)[C@H](CC(=O)O)NC(=O)[C@H](CCC(=O)O)NC(=O)[C@@H](NC(=O)[C@H](CC(=O)O)NC(C)=O)[C@@H](C)O)C(C)C)C(C)C)C(C)=O` was tested, and the Ki was > 100 µM. With `CCCN(NC(=O)[C@H]1CCCN1C(=O)[C@@H](NC(=O)[C@@H](NC(=O)[C@H](CC(=O)O)NC(=O)[C@H](CCC(=O)O)NC(=O)[C@@H](NC(=O)[C@H](CC(=O)O)NC(C)=O)[C@@H](C)O)C(C)C)C(C)C)C(=O)c1ccc(S(=O)(=O)F)cc1` the Ki was > 100 µM. For `CCCN(NC(=O)[C@H]1CCCN1C(=O)[C@@H](NC(=O)[C@@H](NC(=O)[C@H](CC(=O)O)NC(=O)[C@H](CCC(=O)O)NC(=O)[C@@H](NC(=O)[C@H](CC(=O)O)NC(C)=O)[C@@H](C)O)C(C)C)C(C)C)S(=O)(=O)CCl`, the Ki was > 100 µM. In the case of `CCN(NC(=O)[C@H]1CCCN1C(=O)[C@@H](NC(=O)[C@@H](NC(=O)[C@H](CC(=O)O)NC(=O)[C@H](CCC(=O)O)NC(=O)[C@@H](NC(=O)[C@H](CC(=O)O)NC(C)=O)[C@@H](C)O)C(C)C)C(C)C)C(=O)Oc1ccc([N+](=O)[O-])cc1`, the Ki is reported as > 100 µM. `CCCN(NC(=O)[C@H]1CCCN1C(=O)[C@@H](NC(=O)[C@@H](NC(=O)[C@H](CC(=O)O)NC(=O)[C@H](CCC(=O)O)NC(=O)[C@@H](NC(=O)[C@H](CC(=O)O)NC(C)=O)[C@@H](C)O)C(C)C)C(C)C)C(=O)N[C@@H](CO)C(=O)N[C@@H](CCSC)C(=O)N[C@@H](CO)C(=O)N[C@@H](Cc1ccc(O)cc1)C(=O)N[C@H](C(=O)N[C@@H](Cc1c[nH]c2ccccc12)C(=O)N[C@H](C(=O)NCC(=O)N[C@@H](CCCCN)C(=O)O)[C@@H](C)O)[C@@H](C)O` showed a Ki of 10 µM. Molecule `CCCN(NC(=O)[C@H]1CCCN1C(=O)[C@@H](NC(=O)[C@@H](NC(=O)[C@H](CC(=O)O)NC(=O)[C@H](CCC(=O)O)NC(C)=O)C(C)C)C(C)C)C(=O)N[C@@H](CO)C(=O)N[C@@H](CCSC)C(=O)N[C@@H](CO)C(N)=O` has a Ki of 200 µM. `CCCN(NC(=O)[C@H]1CCCN1C(=O)[C@@H](NC(=O)[C@@H](NC(=O)[C@H](CC(=O)O)NC(C)=O)C(C)C)C(C)C)C(=O)Oc1ccc([N+](=O)[O-])cc1` gave a Ki of 7 µM. With `CCCN(NC(=O)[C@H]1CCCN1C(=O)[C@@H](NC(=O)[C@@H](NC(=O)[C@H](CC(=O)O)NC(=O)[C@H](CCC(=O)O)NC(=O)[C@@H](NC(=O)[C@H](CC(=O)O)NC(C)=O)[C@@H](C)O)C(C)C)C(C)C)C(=O)C(F)(F)F` the Ki was > 100 µM. Work on `CCCN(NC(=O)[C@H]1CCCN1C(=O)[C@@H](NC(=O)[C@@H](NC(C)=O)C(C)C)C(C)C)C(=O)Oc1ccc([N+](=O)[O-])cc1` yielded a Ki of 100 µM. With `CCCN(NC(=O)[C@H]1CCCN1C(=O)[C@@H](NC(=O)[C@@H](NC(=O)[C@H](CC(=O)O)NC(=O)[C@H](CCC(=O)O)NC(=O)[C@@H](NC(=O)[C@H](CC(=O)O)NC(C)=O)[C@@H](C)O)C(C)C)C(C)C)C(=O)CBr` the Ki was > 100 µM. Work on `CCCN(NC(=O)[C@H]1CCCN1C(=O)[C@@H](NC(=O)[C@@H](NC(=O)[C@H](CC(=O)O)NC(=O)[C@H](CCC(=O)O)NC(=O)[C@@H](NC(=O)[C@H](CC(=O)O)NC(C)=O)[C@@H](C)O)C(C)C)C(C)C)C(=O)OCC(Cl)(Cl)Cl` yielded a Ki of 14 µM. `CCCN(NC(=O)[C@H]1CCCN1C(=O)[C@@H](NC(=O)[C@@H](NC(=O)[C@H](CC(=O)O)NC(=O)[C@H](CCC(=O)O)NC(C)=O)C(C)C)C(C)C)C(=O)Oc1ccc([N+](=O)[O-])cc1` was tested, and the Ki was 6 µM.
